Data: ChEMBL document CHEMBL4033773, “Improving Metabolic Stability with Deuterium: The Discovery of BMT-052, a Pan-genotypic HCV NS5B Polymerase Inhibitor” (ACS Med Chem Lett, 2017)

Key:
[1] = Clearance in rat at 2 mg/kg, iv or 6 mg/kg, po; type: ADME, organism-based; conditions: in vivo
[2] = Clearance in dog at 1 mg/kg, iv or 3 mg/kg, po; type: ADME, organism-based, Canis lupus familiaris; conditions: in vivo
[3] = Clearance in cynomolgus monkey at 1 mg/kg, iv or 3 mg/kg, po; type: ADME, organism-based, Macaca fascicularis; conditions: in vivo
[4] = Volume of distribution at steady state in rat at 2 mg/kg, iv or 6 mg/kg, po; type: ADME, organism-based; conditions: in vivo, read-out: Vdss
[5] = Volume of distribution at steady state in dog at 1 mg/kg, iv or 3 mg/kg, po; type: ADME, organism-based, Canis lupus familiaris; conditions: in vivo, read-out: Vdss
[6] = Volume of distribution at steady state in cynomolgus monkey at 1 mg/kg, iv or 3 mg/kg, po; type: ADME, organism-based, Macaca fascicularis; conditions: in vivo, read-out: Vdss
[7] = AUC in rat at 6 mg/kg, po; type: ADME, organism-based; conditions: in vivo
[8] = AUC in dog at 3 mg/kg, po; type: ADME, organism-based, Canis lupus familiaris; conditions: in vivo
[9] = AUC in cynomolgus monkey at 3 mg/kg, po; type: ADME, organism-based, Macaca fascicularis; conditions: in vivo
[10] = Oral bioavailability in rat at 6 mg/kg; type: ADME, organism-based; conditions: in vivo
[11] = Oral bioavailability in dog at 6 mg/kg; type: ADME, organism-based, Canis lupus familiaris; conditions: in vivo
[12] = Oral bioavailability in cynomolgus monkey at […]; type: ADME, organism-based, Macaca fascicularis; conditions: in vivo
[13] = Distribution constant, log D of compound at pH 6.5; type: physicochemical; conditions: buffer
Cytochrome P450 3A4 = Cytochrome P450 3A4 (Homo sapiens, UniProt P08684); test: Competitive inhibition of CYP3A4 in human liver microsomes in presence of NADPH by LC-MS/MS analysis; type: ADME
Cytochrome P450 3A4, sequence (P08684 whole entry): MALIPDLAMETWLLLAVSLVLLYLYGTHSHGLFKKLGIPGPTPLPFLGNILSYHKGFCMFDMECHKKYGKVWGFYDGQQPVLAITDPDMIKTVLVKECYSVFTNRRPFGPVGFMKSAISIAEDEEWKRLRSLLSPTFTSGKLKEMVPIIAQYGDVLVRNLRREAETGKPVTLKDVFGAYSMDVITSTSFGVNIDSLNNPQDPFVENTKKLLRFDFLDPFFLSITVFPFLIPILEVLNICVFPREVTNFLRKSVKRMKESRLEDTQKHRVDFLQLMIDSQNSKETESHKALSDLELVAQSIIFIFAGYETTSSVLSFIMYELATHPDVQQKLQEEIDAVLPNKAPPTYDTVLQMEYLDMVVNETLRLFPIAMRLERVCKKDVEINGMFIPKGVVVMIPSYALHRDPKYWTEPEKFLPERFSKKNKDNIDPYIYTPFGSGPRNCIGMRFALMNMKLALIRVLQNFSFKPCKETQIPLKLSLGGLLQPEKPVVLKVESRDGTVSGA

Hepatitis C virus [14] = test: Antiviral activity against HCV genotype 1a infected in human HuH7 cells assessed as reduction in viral RNA replication after 3 days in presence of human serum by Dual-Glo luciferase reporter gene assay; type: functional, cell-based, Hepacivirus hominis; conditions: subtype 1a, Huh-7, 72 h
Hepatitis C virus [15] = test: Antiviral activity against HCV genotype 1a infected in human HuH7 cells assessed as reduction in viral RNA replication after 3 days by Dual-Glo luciferase reporter gene assay; type: functional, cell-based, Hepacivirus hominis; conditions: subtype 1a, Huh-7, 72 h

For `[2H]C([2H])([2H])Oc1ncc(-c2cc3c(C(=O)NC)c(-c4ccc(F)cc4)oc3nc2CCC(F)(F)F)cc1C(=O)NC(c1ncon1)(C([2H])([2H])[2H])C([2H])([2H])[2H]`, the clearance [1] was 1.6 mL/min/kg, the clearance [2] was 1 mL/min/kg and the clearance [3] was 4.7 mL/min/kg. It also gave a Vd [4] of 11 L/kg, a Vd [5] of 2.1 L/kg and a Vd [6] of 2.3 L/kg. The AUC [7] was 95 µM·h, the AUC [8] was 125 µM·h and the AUC [9] was 16 µM·h. It also gave a bioavailability [10] of 100%, a bioavailability [11] of 90% and a bioavailability [12] of 85%. The logD [13] was 3.73.

Work on `CNC(=O)c1c(-c2ccc(F)cc2)oc2nc(CCC(F)(F)F)c(-c3cc(C(=O)NC(C)(C)c4ncon4)c(=O)n(C)c3)cc12` yielded an IC50 (Cytochrome P450 3A4) of 440 nM.

In the case of `[2H]C([2H])([2H])C(NC(=O)c1cccc(-c2cc3c(C(=O)NC)c(-c4ccc(F)cc4)oc3nc2CCC(F)(F)F)c1)(c1ncon1)C([2H])([2H])[2H]`, the EC50 (Hepatitis C virus [14]) is reported as 146 nM and the EC50 (Hepatitis C virus [15]) is reported as 13 nM.

With `CNC(=O)c1c(-c2ccc(F)cc2)oc2nc(CCC(F)(F)F)c(-c3cccc(C(=O)NC(C)(C)c4ncon4)c3)cc12` the logD [13] was 4.43.
